Measured values as given in US7074190B2, “Non-invasive apparatus system for monitoring drug hepatoxicity and uses thereof” (priority 2002, dated 2006).

Test system: adult dogs
Assay: Artery blood pressure waveform analysis before and after taking the drug, dog experiment
Type: in vivo
[1] = Code A dog, 500 mg/kg oral, before and after taking the drug (12 hours)
[2] = Code B dog, 1,200 mg/kg subcutaneous injection, 12 hours after taking the drug
[3] = Code B dog, 1,200 mg/kg subcutaneous injection, before and after taking the drug (12 hours)

Experimental: Two adult dogs weighing 12 and 15 kg were used. One (coded A) of them received 500 mg/kg of body weight of acetaminophen oral solution (dissolved in water); and the other one (coded B) received a higher concentration (1,200 mg/kg of body weight) of acetaminophen via subcutaneous injection. After Nembutal was injected and the respirator was put on, the hair on the front legs of the dogs was shaved and a blood pressure waveform sensor was inserted by operation. The waveform of artery blood pressure waveform on brachial position was continuously recorded and analyzed by a computer with a frequency of 100 data per minute. After surgery and before the drug was orally taken or injected, the blood pressure waveform of each dog was measured for two hours as the baseline. After the drug was orally taken or injected, the blood pressure waveform was continuously monitored for analyzing the hepatotoxicity induced by the drug, and blood samples were periodically taken from a tube inserted into the artery for determining the level of hepatotoxicuty.
The definition of parameter altered amount is: (the parameter value after taking the drug—the parameter value before taking the drug)/the parameter value before taking the drug *100%

With `CC(=O)Nc1ccc(O)cc1` [acetaminophen] the “Time parameter Altered Amount T3 = cd” value [1] was “T3 = cd = −20.0 second”, the “Time parameter Altered Amount T4 = de” value [1] was “T4 = de = 23.5 second” and the “Time parameter Altered Amount T5 = ae” value [1] was “T5 = ae = 7.9 second”. The “Time parameter Altered amount T1 = ab” value [1] was “T1 = ab = −16.7 second”, the “oblique angle parameter Altered amount D1 = (Bb-Aa)/ab” value [1] was “D1 = (Bb-Aa)/ab = 22.7 mmHg/sec” and the “oblique angle parameter Altered amount D2 = (Bb-Cc)/bc” value [1] was “D2 = (Bb-Cc)/bc = −10.2 mmHg/sec”. For the same compound, the “oblique angle parameter Altered amount D3 = (Dd-Cc)/cd” value [1] was “D3 = (Dd-Cc)/cd = 40.0 mmHg/sec”, the “oblique angle parameter Altered amount D4 = (Dd-Ee)/de” value [1] was “D4 = (Dd-Ee)/de = −8.3 mmHg/sec” and the “oblique angle parameter Altered amount D5 = D1 + D2” value [1] was “D5 = D1 + D2 = 11.4 mmHg/sec”. The “oblique angle parameter Altered amount D6 = D3 + D4” value [1] was “D6 = D3 + D4 = 26.2 mmHg/sec”, the “highest altered amount (oblique angle parameter)” value (Code A dog, 500 mg/kg oral, before vs 12 hours after taking the drug, all other parameters lower) was 40% and the “difference between the blood pressure waveforms before and after taking the drug” value (Code A dog, 500 mg/kg oral, before vs after taking the drug for 12 hours (FIG. 5 vs FIG. 6)) was “no significant difference”. The “Oblique angle parameter D1 = (Bb-Aa)/ab” value [2] was “D1 = (Bb-Aa)/ab = 2250 mmHg/sec”, the “Oblique angle parameter D2 = (Bb-Ee)/be” value [2] was “D2 = (Bb-Ee)/be = 1383 mmHg/sec” and the “Oblique angle parameter D3 = (Ff-Ee)/ef” value [2] was “D3 = (Ff-Ee)/ef = 420 mmHg/sec”. The “Oblique angle parameter D4 = (Ff-Gg)/fg” value [2] was “D4 = (Ff-Gg)/fg = 311 mmHg/sec”, the “Oblique angle parameter D5 = D1 + D2” value [2] was “D5 = D1 + D2 = 3633 mmHg/sec” and the “Oblique angle parameter D6 = D3 + D4” value [2] was “D6 = D3 + D4 = 731 mmHg/sec”. The “Pressure parameter P1 = Aa” value [2] was “P1 = Aa = 16 mmHg”, the “Pressure parameter P2 = Bb” value [2] was “P2 = Bb = 106 mmHg” and the “Pressure parameter P3 = Ee” value [2] was “P3 = Ee = 23 mmHg”. For the same compound, the “Pressure parameter P4 = Ff” value [2] was “P4 = Ff = 44 mmHg”, the “Pressure parameter P5 = Gg” value [2] was “P5 = Gg = 16 mmHg” and the “Ratio parameter RA1 = A6/A5” value [2] was “RA1 = A6/A5 = 0.87”. For the same compound, the “Ratio parameter RA2 = A5/A7” value [2] was “RA2 = A5/A7 = 0.53”, the “Ratio parameter RA3 = A6/A7” value [2] was “RA3 = A6/A7 = 0.47” and the “Ratio parameter RP1 = Ff/Bb” value [2] was “RP1 = Ff/Bb = 0.42”. For the same compound, the “Ratio parameter RT1 = ab/ag” value [2] was “RT1 = ab/ag = 0.17”, the “Ratio parameter RT2 = ae/ag” value [2] was “RT2 = ae/ag = 0.42” and the “Ratio parameter RT3 = af/ag” value [2] was “RT3 = af/ag = 0.63”. The “Superficial measure parameter A1 = AabB” value [2] was “A1 = AabB = 2.44 sec. * mmHg”, the “Superficial measure parameter A2 = BbeE” value [2] was “A2 = BbeE = 2.58 sec. * mmHg” and the “Superficial measure parameter A3 = EefF” value [2] was “A3 = EefF = 1.68 sec. * mmHg”. For the same compound, the “Superficial measure parameter A4 = FfgG” value [2] was “A4 = FfgG = 2.70 sec. * mmHg”, the “Superficial measure parameter A5 = A1 + A2” value [2] was “A5 = A1 + A2 = 5.02 sec. * mmHg” and the “Superficial measure parameter A6 = A3 + A4” value [2] was “A6 = A3 + A4 = 4.38 sec. * mmHg”. For the same compound, the “Superficial measure parameter A7 = A5 + A6” value [2] was “A7 = A5 + A6 = 9.40 sec. * mmHg”, the “Time parameter T1 = ab” value [2] was “T1 = ab = 0.04 second” and the “Time parameter T2 = be” value [2] was “T2 = be = 0.06 second”. The “Time parameter T3 = ef” value [2] was “T3 = ef = 0.05 second”, the “Time parameter T4 = fg” value [2] was “T4 = fg = 0.09 second” and the “Time parameter T5 = ag” value [2] was “T5 = ag = 0.24 second”. For the same compound, the “number of parameter altered amounts exceeding 100%” value (Code B dog, 1,200 mg/kg subcutaneous injection, TABLE 8) was “six”, the “Oblique angle parameter Altered amount D2 = (Bb-Ee)/be” value [3] was “D2 = (Bb-Ee)/be = 349%” and the “Oblique angle parameter Altered amount D3 = (Ff-Ee)/ef” value [3] was “D3 = (Ff-Ee)/ef = 23%”. For the same compound, the “Oblique angle parameter Altered amount D4 = (Ff-Gg)/fg” value [3] was “D4 = (Ff-Gg)/fg = 677%”, the “Pressure parameter Altered amount P1 = Aa” value [3] was “P1 = Aa = −85%” and the “Pressure parameter Altered amount P2 = Bb” value [3] was “P2 = Bb = −25%”. For the same compound, the “Pressure parameter Altered amount P3 = Ee” value [3] was “P3 = Ee = −79%”, the “Pressure parameter Altered amount P4 = Ff” value [3] was “P4 = Ff = −65%” and the “Pressure parameter Altered amount P5 = Gg” value [3] was “P5 = Gg = −85%”. The “Ratio parameter Altered amount RA1 = A6/A5” value [3] was “RA1 = A6/A5 = 123%”, the “Ratio parameter Altered amount RA2 = A5/A7” value [3] was “RA2 = A5/A7 = 89%” and the “Ratio parameter Altered amount RA3 = A6/A7” value [3] was “RA3 = A6/A7 = −35%”. For the same compound, the “Ratio parameter Altered amount RP1 = Ff/Bb” value [3] was “RP1 = Ff/Bb = −51%”, the “Ratio parameter Altered amount RT1 = ab/ag” value [3] was “RT1 = ab/ag = 143%” and the “Ratio parameter Altered amount RT2 = ae/ag” value [3] was “RT2 = ae/ag = 55%”. The “Ratio parameter Altered amount RT3 = af/ag” value [3] was “RT3 = af/ag = 85%”, the “Superficial measure parameter Altered amount A1 = AabB” value [3] was “A1 = AabB = −62%” and the “Superficial measure parameter Altered amount A2 = BbeE” value [3] was “A2 = BbeE = −85%”. For the same compound, the “Superficial measure parameter Altered amount A3 = EefF” value [3] was “A3 = EefF = −72%”, the “Superficial measure parameter Altered amount A4 = FfgG” value [3] was “A4 = FfgG = −95%” and the “Superficial measure parameter Altered amount A5 = A1 + A2” value [3] was “A5 = A1 + A2 = −47%”. The “Superficial measure parameter Altered amount A6 = A3 + A4” value [3] was “A6 = A3 + A4 = −61%”, the “Superficial measure parameter Altered amount A7 = A5 + A6” value [3] was “A7 = A5 + A6 = −84%” and the “Time parameter Altered amount T1 = ab” value [3] was “T1 = ab = −20%”. The “Time parameter Altered amount T2 = be” value [3] was “T2 = be = −54%”, the “Time parameter Altered amount T3 = ef” value [3] was “T3 = ef = 0%” and the “Time parameter Altered amount T4 = fg” value [3] was “T4 = fg = −80%”. For the same compound, the “Time parameter Altered amount T5 = ag” value [3] was “T5 = ag = −64%”, the “oblique angle parameter Altered amount D1 = (Bb-Aa)/ab” value [3] was “D1 = (Bb-Aa)/ab = 162%” and the “oblique angle parameter Altered amount D5 = D1 + D2” value [3] was “D5 = D1 + D2 = 211%”. For the same compound, the “oblique angle parameter Altered amount D6 = D3 + D4” value [3] was “D6 = D3 + D4 = 92%”.
